Here are results for six molecules from patent publication US6448256B1, “Antibiotic prodrugs” (University of Massachusetts, priority 1999, dated 2002).

In brackets after ≈: the same amount, converted by molar mass. Where two headings read alike, the source gives them in different places. Bounds are passed on as bounds.

For assay [1], the system named is MRSA. The experiment in a line: MIC against methicillin-resistant S. aureus strain MRSA / MRSA1. The class given is cell-based. To be noted: for MIC: Staphylococcus aureus, MRSA, Table 5. As for the experimental part:
(§1) To further investigate the antibacterial and/or DNA pol III inhibitory activity of various drug compounds, various ester-containing moieties N-linked to the EMAU core were produced as described in Example 1. These prodrugs were assayed for inhibition of B. subtilis DNA pol III and antibiotic activity against a number of bacteria.
(§2) The minimal inhibitory concentrations (MICs) of the four N3-substituted agents and EMAU were determined for B. subtilis (BS), methicillin-sensitive and resistant S. aureus (SA & MRSA), vancomycin-sensitive and resistant E. fecalis (EF& VREF), vancomycin-resistant E. fecium (VREF*), and E. coli (EC) as a Gram-negative control.

Assay [2] relates to MRSA2. As to the kind of experiment: MIC against methicillin-resistant S. aureus strain MRSA2. The class given is cell-based. To be noted: for MIC: Staphylococcus aureus, Table 5. As for the experimental part:
as §1, §2

Assay [3] has as its system vancomycin-resistant E. fecium. The experiment in a line: MIC against vancomycin-resistant E. fecium (VRE, VREF*). Conditions: for MIC: Enterococcus, Table 5, vancomycin-resistant E. fecium. The class given is cell-based. As for the experimental part:
as §1, §2

The target of assay [4] is B. subtilis DNA pol III (Bacillus subtilis, UniProt P13267). As to the kind of experiment: Inhibition of B. subtilis DNA pol III (Ki). The class given is biochemical. As to the method: as §1
B. subtilis DNA pol III, sequence (P13267 whole entry): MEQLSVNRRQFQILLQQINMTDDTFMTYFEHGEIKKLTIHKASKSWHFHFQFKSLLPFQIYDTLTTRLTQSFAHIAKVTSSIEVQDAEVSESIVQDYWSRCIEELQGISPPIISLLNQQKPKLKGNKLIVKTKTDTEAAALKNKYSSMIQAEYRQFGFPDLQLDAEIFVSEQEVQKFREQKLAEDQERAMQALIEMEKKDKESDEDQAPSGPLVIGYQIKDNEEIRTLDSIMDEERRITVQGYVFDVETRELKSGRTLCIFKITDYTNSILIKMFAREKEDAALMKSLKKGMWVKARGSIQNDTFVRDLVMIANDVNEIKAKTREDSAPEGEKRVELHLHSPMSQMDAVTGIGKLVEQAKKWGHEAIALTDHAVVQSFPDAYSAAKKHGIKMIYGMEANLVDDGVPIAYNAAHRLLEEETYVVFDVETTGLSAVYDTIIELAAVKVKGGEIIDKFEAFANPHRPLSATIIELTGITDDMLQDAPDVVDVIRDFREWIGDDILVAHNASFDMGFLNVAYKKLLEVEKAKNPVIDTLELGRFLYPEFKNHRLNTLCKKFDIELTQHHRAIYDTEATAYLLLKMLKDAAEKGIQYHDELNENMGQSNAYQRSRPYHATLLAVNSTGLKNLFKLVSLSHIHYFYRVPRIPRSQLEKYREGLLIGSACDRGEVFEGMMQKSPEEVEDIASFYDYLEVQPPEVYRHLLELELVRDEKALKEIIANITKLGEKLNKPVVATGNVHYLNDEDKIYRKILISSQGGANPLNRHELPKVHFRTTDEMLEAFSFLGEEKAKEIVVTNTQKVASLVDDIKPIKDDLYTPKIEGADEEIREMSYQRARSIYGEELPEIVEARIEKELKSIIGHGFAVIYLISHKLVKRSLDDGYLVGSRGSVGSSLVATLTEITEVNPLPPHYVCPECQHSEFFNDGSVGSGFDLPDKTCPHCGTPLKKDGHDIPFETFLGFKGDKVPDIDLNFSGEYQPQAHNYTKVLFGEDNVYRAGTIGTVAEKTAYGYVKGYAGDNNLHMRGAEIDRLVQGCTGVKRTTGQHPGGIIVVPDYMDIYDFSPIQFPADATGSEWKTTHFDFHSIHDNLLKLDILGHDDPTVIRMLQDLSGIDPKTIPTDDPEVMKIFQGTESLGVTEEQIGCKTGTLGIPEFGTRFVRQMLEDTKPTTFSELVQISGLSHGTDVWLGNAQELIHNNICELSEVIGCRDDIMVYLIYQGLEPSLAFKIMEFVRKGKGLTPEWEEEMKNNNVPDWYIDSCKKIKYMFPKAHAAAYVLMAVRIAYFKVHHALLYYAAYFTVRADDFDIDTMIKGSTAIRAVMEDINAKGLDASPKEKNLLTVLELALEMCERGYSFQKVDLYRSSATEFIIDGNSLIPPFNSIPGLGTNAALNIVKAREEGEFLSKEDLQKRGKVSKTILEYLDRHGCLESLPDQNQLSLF
(§3) The competitive inhibitor constants (Ki) of selected EMAU compounds were determined with three different pol Ills: the pol III enzyme from Bacillus subtilis (BS pol III), and the pol III enzymes of the clinically relevant pathogens, Enterococcus fecalis (EF pol III) and Staphylococcus aureus (SA pol 111).

Assay [5] has as its system B. subtilis. As to the kind of experiment: MIC against B. subtilis. It is filed as cell-based. Conditions: for MIC: Bacillus subtilis, Table 5, read-out: MIC BS. As for the experimental part: as §1, §2
The test system of assay [6] is E. fecium. The experiment in a line: MIC against E. fecium. The class given is cell-based. Conditions: Table 2. As for the experimental part:
as §1

Assay [7] deals with S. aureus. As to the kind of experiment: MIC against S. aureus (methicillin-sensitive). The class given is cell-based. Conditions: for MIC: Staphylococcus aureus, Table 5, methicillin-sensitive, read-out: MIC SA. As to the method:
as §1, §2

Assay [8] concerns E. coli. As to the kind of experiment: MIC against E. coli (Gram-negative control). The class given is cell-based. To be noted: for MIC: Escherichia coli, Table 5, Gram-negative control. As for the experimental part:
as §1, §2

The subject of assay [9] is E. fecalis. As to the kind of experiment: MIC against E. fecalis. The class given is cell-based. To be noted: for MIC: Table 5, vancomycin-sensitive, read-out: MIC EF. As to the method:
as §1, §2

In assay [10] the target is T1, SA pol III (Staphylococcus aureus, UniProt P0C1P9).
T1 sequence (P0C1P9 1-1435): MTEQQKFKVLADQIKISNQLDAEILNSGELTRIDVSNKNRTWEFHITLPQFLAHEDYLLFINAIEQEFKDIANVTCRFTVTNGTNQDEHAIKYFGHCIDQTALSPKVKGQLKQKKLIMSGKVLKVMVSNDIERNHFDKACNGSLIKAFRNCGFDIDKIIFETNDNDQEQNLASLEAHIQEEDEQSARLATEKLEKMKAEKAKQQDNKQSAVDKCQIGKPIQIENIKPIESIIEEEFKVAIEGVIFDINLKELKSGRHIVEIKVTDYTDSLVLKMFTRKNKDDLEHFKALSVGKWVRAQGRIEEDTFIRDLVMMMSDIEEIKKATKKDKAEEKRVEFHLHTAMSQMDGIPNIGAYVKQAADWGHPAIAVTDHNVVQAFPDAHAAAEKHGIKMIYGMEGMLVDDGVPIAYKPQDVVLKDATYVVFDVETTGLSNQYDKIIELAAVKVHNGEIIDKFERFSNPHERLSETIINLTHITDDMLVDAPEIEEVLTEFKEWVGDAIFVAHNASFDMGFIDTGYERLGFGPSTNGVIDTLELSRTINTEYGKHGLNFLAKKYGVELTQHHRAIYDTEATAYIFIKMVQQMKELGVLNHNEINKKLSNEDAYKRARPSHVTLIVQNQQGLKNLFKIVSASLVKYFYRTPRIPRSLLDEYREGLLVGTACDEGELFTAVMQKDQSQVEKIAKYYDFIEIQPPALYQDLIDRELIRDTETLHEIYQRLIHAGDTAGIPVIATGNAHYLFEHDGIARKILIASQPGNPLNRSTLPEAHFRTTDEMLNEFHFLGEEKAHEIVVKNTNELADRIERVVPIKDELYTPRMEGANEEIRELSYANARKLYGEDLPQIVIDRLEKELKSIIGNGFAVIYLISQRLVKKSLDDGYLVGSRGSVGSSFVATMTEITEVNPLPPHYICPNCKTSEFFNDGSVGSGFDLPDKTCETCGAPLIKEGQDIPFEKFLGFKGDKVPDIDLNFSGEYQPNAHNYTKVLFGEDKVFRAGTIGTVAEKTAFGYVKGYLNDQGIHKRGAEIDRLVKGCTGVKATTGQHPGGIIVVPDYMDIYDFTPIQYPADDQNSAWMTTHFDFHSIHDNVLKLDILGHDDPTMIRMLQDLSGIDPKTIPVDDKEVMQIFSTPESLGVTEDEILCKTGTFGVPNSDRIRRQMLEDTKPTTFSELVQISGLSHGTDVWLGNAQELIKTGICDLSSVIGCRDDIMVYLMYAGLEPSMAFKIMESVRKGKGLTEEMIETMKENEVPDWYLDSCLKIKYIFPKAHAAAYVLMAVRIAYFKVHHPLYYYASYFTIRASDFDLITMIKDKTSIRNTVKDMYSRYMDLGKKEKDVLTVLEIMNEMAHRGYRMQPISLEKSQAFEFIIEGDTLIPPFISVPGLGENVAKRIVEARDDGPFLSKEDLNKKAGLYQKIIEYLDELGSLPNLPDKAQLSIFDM
The experiment in a line: Inhibition of S. aureus pol III (Ki). The class given is biochemical. To be noted: Table 4, average of 3 determinations, standard deviation 13.4%. As for the experimental part: as §3

Assay [11] relates to vancomycin-resistant E. fecalis. As to the kind of experiment: MIC against vancomycin-resistant E. fecalis (VREF). The class given is cell-based. To be noted: Table 5, vancomycin-resistant E. fecalis. As to the method:
as §2

Assay [12] concerns the target EF pol III (Enterococcus faecalis, UniProt Q831W8). The experiment in a line: Inhibition of E. fecalis pol III (Ki). It is filed as biochemical. As for the experimental part:
as §3

Assay [13] has as its system S. aureus (methicillin-sensitive Smith strain). As to the kind of experiment: ip/ip mouse protection against lethal S. aureus infection. The class given is in vivo, mice. As to the method:
Step 1: Screening—Each candidate prodrug is screened for activity in an ip/ip S. aureus protection model. Candidates that display efficacy equivalent to that of HB-EMAU and HB-IMAU are selected for advanced pharmacokinetic analysis and application in the more relevant mouse thigh model of infection.
The efficacy of the propyl derivatives was tested against murine staphylococcal infection in vivo. A simple “ip/ip” system was used, in which 20 gram mice (10 each) were injected ip (intraperitoneally) with a lethal dose (2.3×10^7 CFU) of the methicillin-sensitive Smith strain of S. aureus. The mice were then immediately injected ip with the antibiotic agent as a 1:9 mixture of DMSO:peanut oil. Vancomycin was used as the positive control drug.
Both hydroxybutyl compounds were tested at 10 mg/kg in the mouse protection experiment against lethal S. aureus infection described in Example 4 above.

The subject of assay [14] is B. subtilis. As to the kind of experiment: Antibacterial activity of crude compounds made by small scale synthesis. The class given is cell-based. To be noted: Bacillus subtilis; crude reaction mixtures dissolved in DMSO, assayed directly. As to the method:
6-Anilinouracils were synthesized using small scale synthetic methods. One milligram quantities of 3-(3-methoxypropyl)-6-chlorouracil were heated with 42 substituted anilines in micro-test tubes at 130° C. for 20 minutes. The reaction mixtures were dissolved in DMSO and assayed directly for antibacterial activity.

The mark [15] stands for this setting: Table 4, average of 3 determinations, standard deviation 13.4%, read-out: KI Bs pol III.
The mark [16] stands for this setting: Table 4, average of 3 determinations, standard deviation 13.4%, read-out: KI EF pol III.

Consider `CCc1cc(Nc2cc(=O)n(CCCCOC(=O)C(C)N)c(=O)[nH]2)ccc1C` (stereo not drawn) [(CH2)4-OCOCHCH3NH3^+Cl^−], for which the “MIC MRSA” value in [1] (Table 2) is given as 20 μ/ml. Moreover, in assay [2] (Table 2), the “MIC MRSA2” value came out at 20 μ/ml. Besides, in assay [3] (Table 2, vancomycin-resistant E. fecium), the “MIC VRE” value turned out to be 10 μ/ml. The inhibitory constant (Ki) in assay [4] (Table 2, prodrugs having the EMAU core, read-out: Ki B. subtilis DNA Pol III) was found to be 180 nM. In addition, in [5] (Table 2), the “MIC B. subtilis” value amounted to 2.5 μ/ml. Besides, in assay [6], the “MIC E. fecium” value is listed as 10 μ/ml. Besides, the “MIC S. aureus” value in assay [7] (Table 2) is reported as 20 μ/ml. For the same molecule, the “MIC E. coli” value in assay [8] (Table 2) is on record as above 20 μ/ml. Besides, in [9] (Table 2), the “MIC E. fecalis” value is 10 μ/ml.

On to `CCc1cc(Nc2cc(=O)[nH]c(=O)[nH]2)ccc1C` [EMAU, 6-(3-ethyl-4-methylanilino)uracil, reference compound], for which the MIC in assay [1] came out at 25 µg/mL (≈ 102 µM); in assay [2], 25 µg/mL (≈ 102 µM); in [3], 25 µg/mL (≈ 102 µM); in assay [11] it was 25 µg/mL (≈ 102 µM); in assay [5], 12 µg/mL (≈ 48.9 µM); in assay [7], 25 µg/mL (≈ 102 µM). Besides, the results for the MIC in assay [8] and in assay [9] were above 35 µg/mL and 25 µg/mL (≈ 102 µM), respectively. Further, the Ki came to 810 nM in assay [10], 250 nM in assay [4] (setting [15]) and 260 nM in assay [12].

For `CCc1cc(Nc2cc(=O)n(CCO)c(=O)[nH]2)ccc1C` [HE-EMAU], the minimal inhibitory concentration (MIC) in assay [1] was determined as 17.4 µg/mL (≈ 60.1 µM); in assay [2], 17.4 µg/mL (≈ 60.1 µM); in assay [3], 8.7 µg/mL (≈ 30.1 µM); in assay [11] it was 8.7 µg/mL (≈ 30.1 µM); in assay [5], 1.1 µg/mL (≈ 3.8 µM); in assay [7], 8.7 µg/mL (≈ 30.1 µM). In addition, the MIC is above 35 µg/mL in [8] and 6.5 µg/mL (≈ 22.5 µM) in [9]. The values for the Ki in assay [10], in assay [4] (setting [15]) and in [12] (setting [16]) were 980 nM, 200 nM and 170 nM, respectively.

Take `CCc1cc(Nc2cc(=O)n(CCCO)c(=O)[nH]2)ccc1C` [HP-EMAU]: the MIC in assay [1] was 8.3 µg/mL (≈ 27.4 µM); in assay [2] it was 8.3 µg/mL (≈ 27.4 µM); in assay [3] it was 4.1 µg/mL (≈ 13.5 µM); in assay [11], 4.1 µg/mL (≈ 13.5 µM); in assay [5], 1 µg/mL (≈ 3.3 µM); in assay [7], 4.1 µg/mL (≈ 13.5 µM). Also, the MIC was above 35 µg/mL in assay [8] and 4.1 µg/mL (≈ 13.5 µM) in assay [9]. For the same molecule, the Ki amounted to 420 nM in assay [10], 330 nM in assay [4] (setting [15]) and 140 nM in [12] (setting [16]). For the same molecule, in assay [13] (5 mg/kg ip), the animals protected is 70%. In addition, the protection of mice entry in [13] (10 mg/kg ip, 10 mice, 2.3×10^7 CFU S. aureus Smith ip, DMSO:peanut oil 1:9) was “protected all mice”.

As to `CCc1cc(Nc2cc(=O)n(CCOC)c(=O)[nH]2)ccc1C` [ME-EMAU], the MIC in assay [1] turned out to be 8.3 µg/mL (≈ 27.4 µM); in [2], 12.4 µg/mL (≈ 40.9 µM); in [3] it was 8.3 µg/mL (≈ 27.4 µM); in assay [11], 6.2 µg/mL (≈ 20.4 µM); in assay [5], 1 µg/mL (≈ 3.3 µM); in [7] it was 10.3 µg/mL (≈ 34 µM). The MIC is above 35 µg/mL in [8] and 6.2 µg/mL (≈ 20.4 µM) in assay [9]. The inhibitory constant (Ki) in assay [10] is 820 nM; in assay [4] (setting [15]), 190 nM; in assay [12] (setting [16]), 160 nM.

For the molecule `CCc1cc(Nc2cc(=O)n(CCCOC)c(=O)[nH]2)ccc1C` [MP-EMAU], the MIC in assay [1] amounted to 3.9 µg/mL (≈ 12.3 µM); in assay [2], 3.9 µg/mL (≈ 12.3 µM); in assay [3] it was 3.9 µg/mL (≈ 12.3 µM); in assay [11] it was 1.9 µg/mL (≈ 5.99 µM); in [5], 0.5 µg/mL (≈ 1.58 µM); in [7], 3.9 µg/mL (≈ 12.3 µM). For the same molecule, the values for the MIC in assay [8], in assay [9] and in assay [14] were above 35 µg/mL, 1.9 µg/mL (≈ 5.99 µM) and 3.13 µg/mL (≈ 9.86 µM), respectively. Besides, the values for the Ki in assay [10], in [4] (setting [15]) and in [12] (setting [16]) were 820 nM, 240 nM and 190 nM, respectively. Further, the animals protected result in assay [13] (10 mg/kg ip) was “roughly 50%”; in [13] (lower dose (5 mg/kg) ip) it was “none”.

By Ki is commonly meant a dissociation constant, usually derived from enzyme kinetics or from competition with a known ligand. The term MIC denotes the lowest concentration found to suppress growth.
